Experiments:
Assay type in all cases: cell-based, human
washed platelets [1] = assay: Cleavage of CD40L into sCD40L in platelet lysates (immunoblotting); conditions: TRAP 5 μM; activated or aggregated platelets; FIG. 4
Description: (§1) Collected blood was centrifuged at 160×g for 20 minutes at room temperature (Beckman GP) and the PRP layer was collected. PRP was then centrifuged at 1100×g for 10 minutes to sediment platelets. Platelets were washed twice by repeat suspending and pelleting in CGS (13 mM trisodium citrate, 120 mM NaCl, 30 mM Dextrose, pH 7.0) containing 0.05 μg/ml PGI2 for the first wash. The final suspension of platelets (5×10^8/ml) was in Tyrode's Hepes.
Cleavage of the full length CD40L (32 kD) yields the 18 kD soluble from (sCD40L). 500 μl of Washed platelets were gently mixed with TRAP (5 μM) to initiate the platelet activation. Metalloproteinase inhibitors GM6001 (50 μM, Calbiochem) or DMSO were added to washed platelets, and incubated at 37° C. with or without rocking for 30 minutes. […] Platelets were removed from suspension by centrifugation for 10 minutes at 15,000×g, 4° C. and the resulting platelet pellets were dissolved in the loading buffer. The proteins in the platelet lysates were resolved with SDS-PAGE, transferred onto nitrocellulose membrane, and blotted with anti-CD40L antibody (MK13A4, Alexis).

washed platelets [2] = assay: sCD40L release from TRAP activated, not aggregated washed platelets (ELISA); conditions: for release of sCD40L from TRAP activated, but not aggregated, platelets: 50 μM, FIG. 3; for release of sCD154 from TRAP-stimulated platelets: 5-50 μM inhibitor, 5 μM TRAP, no rocking
Description: as §1, with “Washed platelets were prepared from blood drawn into ⅙^th volume of ACD containing (85 mM sodium citrate, 111 mM dextrose and 71 mM citric acid) with 0.05 μg/ml PGI2. Collected” for “Collected”
The release of sCD40L from the activated platelets was determined as follows: 500 μL of washed platelets were gently mixed 5 μM of TRAP and incubated at 37° C. without rocking for 30 min. Under this condition, platelets were activated but not aggregated. 5-50 μM of metalloproteinase inhibitors GM6001 (Galardin, Calbiochem) or TAPI-1 (Peptides International) were added to the washed platelets before the addition of TRAP. Platelets were removed from suspension by centrifugation for 10 minutes at 15,000×g, 4° C. and the resulting supernatants were collected. The levels of sCD154 were measured by ELISA.

washed platelets [3] = assay: TRAP6-induced aggregation of washed platelets (aggregometer); conditions: 1 μM TRAP6; 0.1-1.0 μg/ml TIMP-2 or 5-50 μM TAPI-1
Description: as §1, with “Washed platelets were prepared from blood drawn into ⅙ th volume of ACD containing (85 mM sodium citrate, 111 mM dextrose and 71 mM citric acid) with 0.05 μg/ml PGI2. Collected” for “Collected”, “resuspending” for “repeat suspending and pelleting”, “(3×10^8/ml)” for “(5×10^8/ml)”
a. For platelet aggregation studies, 500 μL of washed platelets were allowed to stir in a Chrono-Log Aggregometer before the addition of 1 μM TRAP6 to initiate aggregation. Subsequent samples included various metalloproteinase inhibitors added to washed platelets before the addition of TRAP6; 0.1-1.0 μg/ml TIMP-2 (Calbiochem) or 5-50 μM TAPI-1 (Peptides International). Aggregation proceeded for 5 minutes and the amplitude of each aggregometer tracing was calculated by Aggro-Link software.

washed platelets [4] = assay: sCD154 release from TRAP6-stimulated washed platelets with rocking (ELISA); conditions: rocking 30 minutes, 37° C.
Description: as §1, with “Washed platelets were prepared from blood drawn into ⅙ th volume of ACD containing (85 mM sodium citrate, 111 mM dextrose and 71 mM citric acid) with 0.05 μg/ml PGI2. Collected” for “Collected”, “resuspending” for “repeat suspending and pelleting”, “(3×10^8/ml)” for “(5×10^8/ml)”
b. CD154 determinations were made as follows: Washed platelets were incubated at 37° C. with various concentrations of TIMP-2 and TAPI-1 (see above) while rocking on a Nutator for 30 minutes. Platelets or platelet aggregates were removed from suspension by centrifugation for 10 minutes at 15,000×g, 4° C. and the resulting supernatants were collected. The levels of sCD154 were measured by ELISA.

CNC(=O)[C@H](Cc1c[nH]c2ccccc12)NC(=O)[C@@H](CC(=O)NO)CC(C)C [GM6001, N-[(2R)-2-(Hydroxamidocarbonylmethyl)-4-methylpentanoyl]-L-tryptophan methylamide]
inhibited: cleavage of the full length CD40L to the 18 kD soluble form (washed platelets [1]) | release of sCD40L from TRAP activated, but not aggregated, platelets (washed platelets [2]) | release of sCD154 from TRAP-stimulated platelets (washed platelets [2])

CC(C)C[C@H](CC(=O)NO)C(=O)N[C@@H](Cc1ccc2ccccc2c1)C(=O)N[C@@H](C)C(=O)NCCN [TAPI-1, HONHCOCH2CH(CH2CH(CH3)2-CO-NaI-Ala-NHCH2CH2NH2]
inhibited: platelet aggregation induced by sub-optimal concentrations of TRAP6 (washed platelets [3]) | release of sCD154 from TRAP6-stimulated platelets (washed platelets [4]) | release of sCD40L from TRAP activated, but not aggregated, platelets (washed platelets [2]) | release of sCD154 from TRAP-stimulated platelets (washed platelets [2])
